# Results from patent publication US20040157837A1, “Combinations for the treatment of fungal infections” (priority 2002, published 2004).
# Legend:
# Candida glabrata = experiment: Anti-proliferation assay, Candida glabrata; assay type: cell-based; details: Nakaseomyces glabratus, Amphotericin B 0.00 μM (r15), read-out: Percent inhibition of proliferation
# Excerpt: (§1) Using the method described below, we tested the ability of the combination of various concentrations of amphotericin B plus disulfiram to inhibit the proliferation of numerous yeast strains using particle density as an indicator of cell number.
# (§2) Two clinical Candida albicans isolates (one triazole-resistant strain and one triazole-susceptible strain) were obtained from the culture collection if the Seattle Biomedical Research Institute (Seattle, Wash.). Additional fungal strains were obtained from the American Type Culture Collection triazole-resistant C. albicans: ATCC MYA-573, C. glabrata: ATCC 90030. Yeast cultures were stored in 15% glycerol at −70° C. Isolates were cultured in growth medium (RPMI 1640; 2% glucose without NaHCO3 and phenol red, buffered with 0.165 M MOPS to pH 7.0) at 35° C. for 24 hours prior to in vitro susceptibility testing. All media reagents were purchased from Sigma Chemical Co. (St. Louis, Mo.).
# (§3) The following compounds were used: disulfiram and amphotericin B (both from Sigma Chemical Co.). In the anti-proliferation experiments, Gentian Violet was used as a positive control for antifungal activity. Stock solutions of each compound were prepared in DMSO and stored at −20° C. Prior to use, stock solutions were diluted in RPMI to produce 10× solutions. 10× disulfiram (0-7 μL) and 10× amphotericin B (0-7 μL) were then plated in 40 μL of in 384 well microtiter plates to form a matrix of compound combinations.
# (§4) All antifungal susceptibility testing was performed according to document M-27A as published by the National Committee for Clinical Laboratory Standards (Reference Method for Broth Dilution Antifungal Susceptibility Testing of Yeasts (1997), Wayne, Pa.). Briefly, yeast inocula from overnight cultures were standardized to a turbidity equivalent to a 0.5 McFarland Standard using a spectrophotometer at 530 nm, giving rise to a stock solution of 1×10^6 cells/mL. Each yeast suspension was further diluted in growth medium to yield a final inoculum concentration of approximately 4×10^3 cells/mL. Forty microlitres of the inoculum were used to inoculate each well, resulting in a final concentration of 2×10^3 cells/mL. Drug-free controls were included on each plate. Plates were incubated for 16 hours at 32° C. The amount of cell growth was determined by particle density as read on a Nephelometer (BMG Lab Technologies; Durham, N.C.).
# [1] = test system: Candida albicans Strain 17; experiment: Anti-proliferation assay, Candida albicans Strain 17; assay type: cell-based; details: STRAIN17, Amphotericin B 0.00 μM (r16), read-out: Percent inhibition of proliferation
# Excerpt: as §1, §2, §3, §4
# [2] = test system: Candida albicans Strain 1; experiment: Anti-proliferation assay, Candida albicans Strain 1; assay type: cell-based; details: STRAIN1, Amphotericin B 0.00 μM (r16), read-out: Percent inhibition of proliferation
# Excerpt: as §1, §2, §3, §4
# [3] = cited from earlier work
# Aspergillus fumigatus = experiment: Anti-proliferation assay, Aspergillus fumigatus; assay type: cell-based; details: Amphotericin B 0.00 μM, read-out: Percent inhibition of proliferation
# Description: as §1
# The Aspergillus fumigatus strain was obtained from the American Type Culture Collection (ATCC 46645). Aspergillus cultures were stored in 15% glycerol at −70° C. Isolates were cultured on Sabouraud glucose (SAB) agar plates at 37° C. for 5 to 7 days. Condidia were collected by addung 5 to 10 mL of sterile saline containing 0.05% Tween 20 to the plates and loosening condidia with a swab. Using a pipette, condidia were collected suspension and placed in a sterile bottle. This was repeated for all plates. After harvesting the suspension was filtered through gauze into a clean, sterile bottle. The turbidity of the supernatants was measured spectrophometrically at 530 nm and the transmission adjusted to 80-82% with PBS (with 0.05% Tween 20) to yield an initial suspension of 1×10^6 CFU/mL.
# as §3, §4
# Candida albicans MYA 573 = experiment: Anti-proliferation assay, Candida albicans MYA 573; assay type: cell-based; details: MYA573, Amphotericin B 0.00 μM (r16), read-out: Percent inhibition of proliferation
# Excerpt: as §1, §2, §3, §4
smiles,measurement,setting,value
"CCN(CC)C(=S)SSC(=S)N(CC)CC [Disulfiram, bis(diethylthiocarbamoyl) disulfide]",inhibition at 0.01 µM,Candida glabrata; Disulfiram 0.01 μM,-10.4%
same,inhibition at 0.02 µM,Candida glabrata; Disulfiram 0.02 μM,-1.67%
same,inhibition at 0.04 µM,Candida glabrata; Disulfiram 0.04 μM,1.52%
same,inhibition at 0.07 µM,Candida glabrata; Disulfiram 0.07 μM,1.92%
same,inhibition at 0.14 µM,Candida glabrata; Disulfiram 0.14 μM,2.12%
same,inhibition at 0.28 µM,Candida glabrata; Disulfiram 0.28 μM,19.6%
same,inhibition at 0.56 µM,Candida glabrata; Disulfiram 0.56 μM,61.3%
same,inhibition at 1.12 µM,Candida glabrata; Disulfiram 1.12 μM,88.7%
same,inhibition at 0.01 µM,[1]; Disulfiram 0.01 μM,-3.64%
same,inhibition at 0.02 µM,[1]; Disulfiram 0.02 μM,-0.03%
same,inhibition at 0.04 µM,[1]; Disulfiram 0.04 μM,-0.15%
same,inhibition at 0.07 µM,[1]; Disulfiram 0.07 μM,2.27%
same,inhibition at 0.14 µM,[1]; Disulfiram 0.14 μM,2.66%
same,inhibition at 0.28 µM,[1]; Disulfiram 0.28 μM,22.9%
same,inhibition at 0.56 µM,[1]; Disulfiram 0.56 μM,30.5%
same,inhibition at 1.12 µM,[1]; Disulfiram 1.12 μM,53.4%
same,inhibition at 0.01 µM,[2]; Disulfiram 0.01 μM,5.3%
same,inhibition at 0.02 µM,[2]; Disulfiram 0.02 μM,9.08%
same,inhibition at 0.04 µM,[2]; Disulfiram 0.04 μM,10.1%
same,inhibition at 0.07 µM,[2]; Disulfiram 0.07 μM,11.7%
same,inhibition at 0.14 µM,[2]; Disulfiram 0.14 μM,18.2%
same,inhibition at 0.28 µM,[2]; Disulfiram 0.28 μM,26.9%
same,inhibition at 0.56 µM,[2]; Disulfiram 0.56 μM,54.5%
same,inhibition at 1.12 µM,[2]; Disulfiram 1.12 μM,89.6%
same,soluble in alcohol,[3]; alcohol,about 3.8 mg/100 mL
same,soluble in water,[3]; water,about 20 mg/100 mL
same,inhibition at 0.04 µM,Aspergillus fumigatus; Disulfiram 0.04 μM,0.66%
same,inhibition at 0.08 µM,Aspergillus fumigatus; Disulfiram 0.08 μM,-2.93%
same,inhibition at 0.16 µM,Aspergillus fumigatus; Disulfiram 0.16 μM,-2.21%
same,inhibition at 0.31 µM,Aspergillus fumigatus; Disulfiram 0.31 μM,-13.1%
same,inhibition at 0.63 µM,Aspergillus fumigatus; Disulfiram 0.63 μM,-0.75%
same,inhibition at 1.25 µM,Aspergillus fumigatus; Disulfiram 1.25 μM,6.07%
same,inhibition at […],Aspergillus fumigatus; Disulfiram 2.50 μM,14.9%
same,inhibition at 5 µM,Aspergillus fumigatus; Disulfiram 5.00 μM,31.7%
same,inhibition at 10 µM,Aspergillus fumigatus; Disulfiram 10.00 μM,37.2%
same,inhibition at 0.01 µM,Candida albicans MYA 573; Disulfiram 0.01 μM,-5.62%
same,inhibition at 0.02 µM,Candida albicans MYA 573; Disulfiram 0.02 μM,1.7%
same,inhibition at 0.04 µM,Candida albicans MYA 573; Disulfiram 0.04 μM,10.3%
same,inhibition at 0.07 µM,Candida albicans MYA 573; Disulfiram 0.07 μM,25.2%
same,inhibition at 0.14 µM,Candida albicans MYA 573; Disulfiram 0.14 μM,39.3%
same,inhibition at 0.28 µM,Candida albicans MYA 573; Disulfiram 0.28 μM,55.6%
same,inhibition at 0.56 µM,Candida albicans MYA 573; Disulfiram 0.56 μM,78.3%
same,inhibition at 1.12 µM,Candida albicans MYA 573; Disulfiram 1.12 μM,95%
